Laboratory results published in patent US20080305186A1, “Method and Composition for the Treatment of Cardiac Hypertrophy” (BOARD OF REGENTS, THE UNIVERSITY OF TEXAS SYSTEM, priority 2007, published 2008).

System: cardiac gene expression
Test: Real-time quantitative RT-PCR of heart RNA
Assay type: in vivo, mice
Design: key to Oncostatin receptor (Osmr), Real-time RT-PCR: Ind/Red (Induced/reduced) are used instead of fold-changes where no transcript was detected in one of the two samples being compared; Ind/Red (Induced/reduced) are used instead of fold-changes where no transcript was detected in one of the two samples being compared
Details: drug + isoproterenol vs isoproterenol only; for Oncostatin receptor (Osmr), Real-time RT-PCR: no transcript detected in one of the two samples
Experimental: Real-time reverse transcriptase-polymerase chain reaction (RT-PCR). Real-time quantitative RT-PCR was performed in the iCycler iQ multi-Color real-time PCR detection system (Bio-Rad, Hercules, Calif.) using SYBR Green I dye (Qiagen, Valencia, Calif.) as described by the manufacturer. Briefly, 100 ng of RNA was placed into a 25 μl reaction volume containing 2.5 μl of each primer set (Quantitect Primer Assays, Qiagen), 12.5 μl SYBER Green PCR master mix, and 0.25 μl reverse transcriptase. A typical protocol included reverse transcription at 50° C. for 30 minutes and a denaturation step at 95° C. for 15 minutes followed by 35 cycles with 94° C. denaturation for 15 seconds, 55 C annealing for 30 seconds and 72 C extension for 30 seconds. Detection of the fluorescent product was performed at the end of the extension period at 60° C. for 20 seconds. To confirm amplification specificity, the PCR products were subjected to a melting curve analysis. […] Targets were normalized to reactions performed using Quantitect GAPDH primer assay (Qiagen), and fold change was determined using the comparative threshold method (20).

Row | SMILES | Oncostatin receptor (Osmr), Real-time RT-PCR | Cyclin-dependent kinase inhibitor 1A (p21) (Cdkn1a), Real-time RT-PCR FC (normalized to GAPDH) [FC] | Cytokine inducible SH2-containing protein 3 (Socs3), Real-time RT-PCR FC (normalized to GAPDH) [FC] | GATA binding protein 4 (Gata4), Real-time RT-PCR FC (normalized to GAPDH) [FC] | Matrix metalloproteinase 3 (Mmp3), Real-time RT-PCR FC (normalized to GAPDH) [FC] | NADPH oxidase 4 (Nox4), Real-time RT-PCR FC (normalized to GAPDH) [FC] | Phospholipase A2 group VII (platelet-activating factor acetylhydrolase, plasma) (Pla2g7), Real-time RT-PCR FC (normalized to GAPDH) [FC] | S100 calcium binding protein A8 (calgranulin A) (S100a8), Real-time RT-PCR FC (normalized to GAPDH) [FC] | SET and MYND domain containing 1 (Smyd1), Real-time RT-PCR FC (normalized to GAPDH) [FC] | Serine protease inhibitor 2-2 (Spi2-2) (Serpin3n), Real-time RT-PCR FC (normalized to GAPDH) [FC] | Transformation related protein 53 inducible nuclear protein 1 (Trp53inp1), Real-time RT-PCR FC (normalized to GAPDH) [FC] | Cyclin G2 (Ccng2), Real-time RT-PCR FC (normalized to GAPDH) [FC] | DNA-damage-inducible transcript 4 (Ddit4), Real-time RT-PCR FC (normalized to GAPDH) [FC] | Gem GTPase (Gem), Real-time RT-PCR FC (normalized to GAPDH) [FC] | Lipocalin 2 (Lcn2), Real-time RT-PCR FC (normalized to GAPDH) [FC] | Metallothionein 1 (MT2), Real-time RT-PCR FC (normalized to GAPDH) [FC] | S100 calcium binding protein A9 (calgranulin B) (S100a9), Real-time RT-PCR FC (normalized to GAPDH) [FC] | Tubulin, alpha 4 (Tuba4), Real-time RT-PCR FC (normalized to GAPDH) [FC]
1 | NC(=O)N1c2ccccc2C=Cc2ccccc21 [carbamazepine] | Red | −2.5 | −4.3 | 2.0 | −2.5 | −3.5 | −3.5 | −2.1 | 3.3 | −13.9 | −3.0 | – | – | – | – | – | – | –
2 | C[C@H]1c2cccc(O)c2C(=O)C2=C(O)[C@]3(O)C(=O)C(C(N)=O)=C(O)[C@@H](N(C)C)[C@@H]3[C@@H](O)[C@@H]21 [doxycycline] | Red | −7.0 | −4.0 | 4.9 | −3.5 | −4.0 | −1.9 | −181.0 | 1.6 | −3.8 | −1.9 | −5.7 | −5.7 | −1.8 | −9.9 | −14.9 | −104.0 | 36.8
